molecular target: T1, human recombinant adrenergic α2B receptor (Homo sapiens, UniProt P18089); experiment: Radioligand binding, adrenergic α2B ([3H]Rauwolscine); conditions: 0.03 μM compound
T1 construct: expressed in transfected cells; host or cells: CHO-K1
T1 sequence (P18089 1-450): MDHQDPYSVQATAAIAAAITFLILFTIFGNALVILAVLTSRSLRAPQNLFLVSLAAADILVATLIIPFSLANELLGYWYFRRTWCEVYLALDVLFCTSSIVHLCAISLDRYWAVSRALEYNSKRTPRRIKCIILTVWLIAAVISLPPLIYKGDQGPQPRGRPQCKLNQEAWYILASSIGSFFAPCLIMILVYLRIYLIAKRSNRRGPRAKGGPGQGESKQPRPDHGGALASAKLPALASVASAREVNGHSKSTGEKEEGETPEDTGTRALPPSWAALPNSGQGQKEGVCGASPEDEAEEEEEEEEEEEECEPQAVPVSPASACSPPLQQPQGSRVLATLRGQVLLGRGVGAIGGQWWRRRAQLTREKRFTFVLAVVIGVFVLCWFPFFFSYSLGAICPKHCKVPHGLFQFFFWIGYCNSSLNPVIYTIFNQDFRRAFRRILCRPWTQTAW
In short: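 Readout: percent inhibition of specific [3H]Rauwolscine binding, measured by filtration and counting. Conditions: CHO-K1 cell-expressed receptor, 2.5 nM radioligand, 60 min, 25° C, Tris-HCl pH 7.4 buffer with MgCl2, EDTA, BSA. Non-specific binding: 10 μM Prazosin.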

SMILES | Percentage inhibition of ligand binding, Adrenergic α2B [%]
CN1CCc2c(c3cc(Cl)ccc3n2CC(C)(O)c2ccc(C(F)(F)F)nc2)C1 (single isomer, unassigned) [143b] | 49
Cc1ccc2c(c1)c1c(n2CC(N)c2ccncc2)CC2CCC1N2C (single isomer, unassigned) [155b] | 5

same assay, conditions: 0.03 μM compound, 0.03 µM

Percentage inhibition of ligand binding, Adrenergic α2B [%] | SMILES
42 | Cc1ccc2c(c1)c1c(n2CC(O)c2ccncc2Cl)CCN(C)C1 (single isomer, unassigned) [135a]
68 | Cc1ccc2c(c1)c1c(n2CC(O)c2ccncc2Cl)CCN(C)C1 (single isomer, unassigned) [135b]
34 | Cc1cnc2c(c1)c1c(n2CC(O)c2ccc(F)cc2)CCN(C)C1 (single isomer, unassigned) [136a]
30 | Cc1ccc(CCn2c3c(c4cc(Cl)cnc42)C2CCCN2CC3)cn1 (single isomer, unassigned) [137b]
63 | Cc1cnc2c(c1)c1c(n2CC(C)(O)c2ccc(F)cc2)CCN(C)C1 (single isomer, unassigned) [138a]
25 | Cc1cnc2c(c1)c1c(n2CC(C)(O)c2ccc(F)cc2)CCN(C)C1 (single isomer, unassigned) [138b]
37 | Cc1ccc2c(c1)c1c(n2CC(C)(OC(=O)C(C)C)c2cccnc2)CCN(C)C1 (single isomer, unassigned) [146a]
63 | Cc1ccc2c(c1)c1c(n2CC(C)(OC(=O)C(C)C)c2cccnc2)CCN(C)C1 (single isomer, unassigned) [146b]
52 | Cc1cnc2c(c1)c1c(n2CC(C)(O)c2ccc(C)nc2)CCN2CCCC12 (single isomer, unassigned) [148a]
16 | Cc1cnc2c(c1)c1c(n2CC(C)(O)c2ccc(C)nc2)CCN2CCCC12 (single isomer, unassigned) [148c]

molecular target: T2, human recombinant adrenergic α2A receptor (Homo sapiens, UniProt P08913); experiment: Radioligand binding, adrenergic α2A ([3H]MK-912); conditions: 0.1 μM compound; [3H]MK-912
T2 construct: expressed in transfected cells; host or cells: insect Sf9 cells
T2 sequence (P08913 1-465): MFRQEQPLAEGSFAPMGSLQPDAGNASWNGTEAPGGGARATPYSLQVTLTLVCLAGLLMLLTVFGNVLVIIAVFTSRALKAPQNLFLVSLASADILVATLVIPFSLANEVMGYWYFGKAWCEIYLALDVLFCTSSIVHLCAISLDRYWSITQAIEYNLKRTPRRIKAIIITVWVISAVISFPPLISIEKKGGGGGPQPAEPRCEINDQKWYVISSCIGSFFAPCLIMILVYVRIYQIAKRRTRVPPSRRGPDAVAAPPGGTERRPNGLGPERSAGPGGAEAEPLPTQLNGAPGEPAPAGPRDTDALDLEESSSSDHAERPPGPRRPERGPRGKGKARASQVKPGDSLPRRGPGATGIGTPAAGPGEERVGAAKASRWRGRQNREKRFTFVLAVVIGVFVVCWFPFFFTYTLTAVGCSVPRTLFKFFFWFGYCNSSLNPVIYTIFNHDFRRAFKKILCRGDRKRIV
In short: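 Receptor expressed in insect Sf9 cells, assayed in 50 mM Tris-HCl pH 7.4 with 12.5 mM MgCl2 and 2 mM EDTA. Compounds incubated with 1 nM [3H]MK-912 for 60 min at 25 °C; nonspecific binding defined with 10 μM WB-4101. Filter-bound radioactivity counted; values are percent inhibition of specific binding.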

Percentage inhibition of ligand binding, Adrenergic α2A [%] | SMILES
6 | Cc1ccc(CCn2c3c(c4cc(Cl)cnc42)C2CCCN2CC3)cn1 (single isomer, unassigned) [137b]
0 | CN1CCc2c(c3cc(Cl)ccc3n2CC(C)(O)c2ccc(C(F)(F)F)nc2)C1 (single isomer, unassigned) [143b]

same assay, conditions: 0.1 μM compound; [3H]MK-912; 0.1 µM

Percentage inhibition of ligand binding, Adrenergic α2A [%] | SMILES
4 | Cc1ccc2c(c1)c1c(n2CC(O)c2ccncc2Cl)CCN(C)C1 (single isomer, unassigned) [135a]
22 | Cc1ccc2c(c1)c1c(n2CC(O)c2ccncc2Cl)CCN(C)C1 (single isomer, unassigned) [135b]
16 | Cc1cnc2c(c1)c1c(n2CC(O)c2ccc(F)cc2)CCN(C)C1 (single isomer, unassigned) [136a]
−8 | Cc1cnc2c(c1)c1c(n2CC(C)(O)c2ccc(F)cc2)CCN(C)C1 (single isomer, unassigned) [138a]
4 | Cc1cnc2c(c1)c1c(n2CC(C)(O)c2ccc(F)cc2)CCN(C)C1 (single isomer, unassigned) [138b]
−1 | Cc1ccc2c(c1)c1c(n2CC(C)(OC(=O)C(C)C)c2cccnc2)CCN(C)C1 (single isomer, unassigned) [146a]
21 | Cc1ccc2c(c1)c1c(n2CC(C)(OC(=O)C(C)C)c2cccnc2)CCN(C)C1 (single isomer, unassigned) [146b]
−5 | Cc1cnc2c(c1)c1c(n2CC(C)(O)c2ccc(C)nc2)CCN2CCCC12 (single isomer, unassigned) [148a]
−1 | Cc1cnc2c(c1)c1c(n2CC(C)(O)c2ccc(C)nc2)CCN2CCCC12 (single isomer, unassigned) [148c]

SMILES | Percentage inhibition of ligand binding, Adrenergic α2A [%]
Cc1ccc2c(c1)c1c(n2CC(N)c2ccncc2)CC2CCC1N2C (single isomer, unassigned) [155b] | 5

molecular target: T3, rat adrenergic α1B receptor (Rattus norvegicus, UniProt P15823); experiment: Radioligand binding, adrenergic α1B ([3H]Prazosin); set-up: species or system Wistar Rat; conditions: 0.1 μM compound
T3 construct: rat adrenergic α1B receptor obtained from Wistar Rat liver; from tissue; host or cells: Wistar rat liver
T3 sequence (P15823 1-515): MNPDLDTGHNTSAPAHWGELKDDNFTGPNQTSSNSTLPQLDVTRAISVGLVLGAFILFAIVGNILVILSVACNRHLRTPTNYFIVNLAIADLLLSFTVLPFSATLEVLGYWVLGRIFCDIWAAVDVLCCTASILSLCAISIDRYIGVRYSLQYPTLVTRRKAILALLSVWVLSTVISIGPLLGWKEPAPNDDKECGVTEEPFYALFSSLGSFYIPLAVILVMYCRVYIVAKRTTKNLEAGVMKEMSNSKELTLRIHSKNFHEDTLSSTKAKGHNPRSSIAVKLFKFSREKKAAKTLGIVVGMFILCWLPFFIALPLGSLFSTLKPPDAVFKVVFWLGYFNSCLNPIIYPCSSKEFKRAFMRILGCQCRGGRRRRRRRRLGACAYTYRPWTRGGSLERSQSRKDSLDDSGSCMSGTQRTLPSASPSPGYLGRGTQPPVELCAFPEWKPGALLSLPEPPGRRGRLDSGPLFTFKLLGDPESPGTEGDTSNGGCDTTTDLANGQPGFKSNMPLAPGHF
In short: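 Incubation ran 60 min at 25 °C in Tris-HCl buffer (50 mM, pH 7.4, 0.5 mM EDTA) with Wistar rat liver α1B receptor. 10 μM phentolamine set non-specific binding.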

Percentage inhibition of ligand binding, Adrenergic α1B [%] | SMILES
54 | Cc1cnc2c(c1)c1c(n2CC(O)c2ccc(F)cc2)CCN(C)C1 (single isomer, unassigned) [136a]

same assay, conditions: 0.1 μM compound, 0.1 µM

Percentage inhibition of ligand binding, Adrenergic α1B [%] | SMILES
60 | Cc1ccc2c(c1)c1c(n2CC(O)c2ccncc2Cl)CCN(C)C1 (single isomer, unassigned) [135a]
30 | Cc1ccc2c(c1)c1c(n2CC(O)c2ccncc2Cl)CCN(C)C1 (single isomer, unassigned) [135b]
23 | Cc1ccc(CCn2c3c(c4cc(Cl)cnc42)C2CCCN2CC3)cn1 (single isomer, unassigned) [137b]
61 | Cc1cnc2c(c1)c1c(n2CC(C)(O)c2ccc(F)cc2)CCN(C)C1 (single isomer, unassigned) [138a]
22 | Cc1cnc2c(c1)c1c(n2CC(C)(O)c2ccc(F)cc2)CCN(C)C1 (single isomer, unassigned) [138b]
17 | CN1CCc2c(c3cc(Cl)ccc3n2CC(C)(O)c2ccc(C(F)(F)F)nc2)C1 (single isomer, unassigned) [143b]
41 | Cc1ccc2c(c1)c1c(n2CC(C)(OC(=O)C(C)C)c2cccnc2)CCN(C)C1 (single isomer, unassigned) [146a]
11 | Cc1ccc2c(c1)c1c(n2CC(C)(OC(=O)C(C)C)c2cccnc2)CCN(C)C1 (single isomer, unassigned) [146b]
23 | Cc1cnc2c(c1)c1c(n2CC(C)(O)c2ccc(C)nc2)CCN2CCCC12 (single isomer, unassigned) [148a]
6 | Cc1cnc2c(c1)c1c(n2CC(C)(O)c2ccc(C)nc2)CCN2CCCC12 (single isomer, unassigned) [148c]

SMILES | Percentage inhibition of ligand binding, Adrenergic α1B [%]
Cc1ccc2c(c1)c1c(n2CC(N)c2ccncc2)CC2CCC1N2C (single isomer, unassigned) [155b] | 1

Reference: patent publication US9550782B2, “Compounds and methods for treating diabetes” (Medivation Technologies, Inc., priority 2011, dated 2017)
